Assay: Drug loading (encapsulation) in co-nanoprecipitated particles
Type: physicochemical
Description: During a typical nanoparticle preparation, 5.5 mL of a 1 mg/mL acetone solution of efavirenz, ritonavir or lopinavir is added to a vial and left to evaporate overnight. To this vial 25 mg of the branched polymer and 25 mg of the polymer diblock were added and dissolved in 10 mL of acetone during 6-8 hours to ensure complete solubilisation. 1 mL of the 5 mg/mL solution of polymers and dissolved drug was added to 5 mL of stirring distilled water (500 rpm) and left for 24 hours for complete acetone evaporation (final concentration of polymer 1 mg/mL). During a typical nanoparticle preparation 5.5 mL of a 1 mg/mL acetone solution of irinotecan was added to a vial and left to evaporate overnight. To this vial, 25 mg of the branched polymer and 25 mg of the polymer diblock were added and dissolved in 10 mL of acetone during 6-8 hours to ensure complete solubilisation. 1 mL of the 5 mg/mL solution of polymers and dissolved drug was added to 5 mL of stirring water (500 rpm) and left for 24 hours for complete acetone evaporation.

SMILES | drug loading achieved
CCc1c2c(nc3ccc(OC(=O)N4CCC(N5CCCCC5)CC4)cc13)-c1cc3c(c(=O)n1C2)COC(=O)[C@]3(O)CC [Irinotecan] | effectively encapsulated at 10 wt % or 15 wt %
O=C1Nc2ccc(Cl)cc2[C@@](C#CC2CC2)(C(F)(F)F)O1 [Efavirenz] | 25 wt %

Reference: US10675251B2, “Particles containing branched polymers” (The University of Liverpool, priority 2014, dated 2020)
